Biological target: GST-Bcl-2 (Homo sapiens, UniProt P10415)
Test: Time Resolved-Fluorescence Resonance Energy Transfer (TR-FRET) Bcl-2 binding assay
Details: GST-Bcl-2 1 nM, F-Bak peptide probe 100 nM, Tb-anti-GST 1 nM; 3 hours at room temperature; Ki by Wang's equation
Procedure: Determination of the utility of compounds having Formula (I) as binders to and inhibitors of anti-apoptotic Bcl-2 proteins was performed using the Time Resolved-Fluorescence Resonance Energy Transfer (TR-FRET) Assay. Tb-anti-GST antibody was purchased from Invitrogen (Catalog No. PV4216).
Representative compounds were serially diluted in dimethyl sulfoxide (DMSO) starting at 50 μM (2x starting concentration; 10% DMSO) and 10 μL were transferred into a 384-well plate. The samples are then mixed on a shaker for 1 minute and incubated for an additional 3 hours at room temperature. For each assay, the probe/antibody and protein/probe/antibody were included on each assay plate as negative and positive controls, respectively. Fluorescence was measured on the ENVISION plate reader (Perkin Elmer) using a 340/35 nm excitation filter and 520/525 (F-Bak peptide) and 495/510 nm (Tb-labeled […] antibody) emission filters. Inhibition constants (Ki) are shown in TABLE 2 below and were determined using Wang's equation (Wang Z.-X. An Exact Mathematical Expression For Describing Competitive Binding Of Two Different Ligands To A Protein Molecule. FEBS Lett. 1995, 360:111-4).
The inhibition constant (Ki) is the dissociation constant of an enzyme-inhibitor complex or a protein/small molecule complex, wherein the small molecule is inhibiting binding of one protein to another protein. So a large Ki value indicates a low binding affinity and a small Ki value indicates a high binding affinity.
The compounds are therefore expected to have utility in treatment of diseases during which anti-apoptotic Bcl-2 protein is expressed.

GST-Bcl-2, sequence (P10415 whole entry): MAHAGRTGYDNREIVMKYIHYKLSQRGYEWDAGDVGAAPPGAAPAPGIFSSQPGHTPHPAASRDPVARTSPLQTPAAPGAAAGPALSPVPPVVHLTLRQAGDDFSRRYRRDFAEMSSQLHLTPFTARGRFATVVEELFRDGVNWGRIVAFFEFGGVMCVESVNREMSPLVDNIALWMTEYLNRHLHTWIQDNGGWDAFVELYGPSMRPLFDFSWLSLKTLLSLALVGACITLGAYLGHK

Compound	Ki [nM]
O=C(NS(=O)(=O)c1cccc([N+](=O)[O-])c1)c1ccc(N2CCN(Cc3ccccc3-c3ccc(Cl)cc3)CC2)cc1Oc1ccccc1 [Example 9, 4-{4-[(4′-chloro-1,1′-biphenyl-2-yl)methyl]piperazin-1-yl}-N-[(3-nitrophenyl)sulfonyl]-2-phenoxybenzamide]	26.5
O=C(NS(=O)(=O)c1cccc([N+](=O)[O-])c1)c1ccc(N2CCN(Cc3ccccc3-c3ccc(Cl)cc3)CC2)cc1[S+]([O-])c1ccccc1 (stereo not shown) [Example 21, 4-{4-[(4′-chloro-1,1′-biphenyl-2-yl)methyl]piperazin-1-yl}-N-[(3-nitrophenyl)sulfonyl]-2-(phenylsulfinyl)benzamide]	87.3
CC1(C)CCC(CN2CCN(c3ccc(C(=O)NS(=O)(=O)c4cccc5cnccc45)c(Oc4ccc5[nH]ccc5c4)c3)CC2)=C(c2ccc(Cl)cc2)C1 [Example 37, 4-(4-{[2-(4-chlorophenyl)-4,4-dimethylcyclohex-1-en-1-yl]methyl}piperazin-1-yl)-2-(1H-indol-5-yloxy)-N-(isoquinolin-5-ylsulfonyl)benzamide]	10.6
O=C(NS(=O)(=O)c1cccc(F)c1)c1ccc(N2CCN(Cc3ccccc3-c3ccc(Cl)cc3)CC2)cc1Oc1ccccc1 [Example 23, 4-{4-[(4′-chloro-1,1′-biphenyl-2-yl)methyl]piperazin-1-yl}-N-[(3-fluorophenyl)sulfonyl]-2-phenoxybenzamide]	27.3
CC1(C)CCC(CN2CCN(c3ccc(C(=O)NS(=O)(=O)c4ccc(Cl)c([N+](=O)[O-])c4)c(Oc4cccc5[nH]ncc45)c3)CC2)=C(c2ccc(Cl)cc2)C1 [Example 38, N-[(4-chloro-3-nitrophenyl)sulfonyl]-4-(4-{[2-(4-chlorophenyl)-4,4-dimethylcyclohex-1-en-1-yl]methyl}piperazin-1-yl)-2-(1H-indazol-4-yloxy)benzamide]	0.174
O=C(NS(=O)(=O)c1ccccc1)c1ccc(N2CCN(Cc3ccccc3-c3ccc(Cl)cc3)CC2)cc1 [Example 6, 4-{4-[(4′-chloro-1,1′-biphenyl-2-yl)methyl]piperazin-1-yl}-N-(phenylsulfonyl)benzamide]	212
CC1(C)CCC(CN2CCN(c3ccc(C(=O)NS(=O)(=O)c4cccc([N+](=O)[O-])c4)c(Oc4ccc5[nH]ccc5c4)c3)CC2)=C(c2ccc(Cl)cc2)C1 [Example 30, 4-(4-{[2-(4-chlorophenyl)-4,4-dimethylcyclohex-1-en-1-yl]methyl}piperazin-1-yl)-2-(1H-indol-5-yloxy)-N-[(3-nitrophenyl)sulfonyl]benzamide]	0.209
O=C(NS(=O)(=O)c1cccc([N+](=O)[O-])c1)c1ccc(N2CCN(Cc3ccccc3-c3ccc(Cl)cc3)CC2)cc1Sc1ccccc1 [Example 13, 4-{4-[(4′-chloro-1,1′-biphenyl-2-yl)methyl]piperazin-1-yl}-N-[(3-nitrophenyl)sulfonyl]-2-(phenylthio)benzamide]	72.9
CC1(C)CCC(CN2CCN(c3ccc(C(=O)NS(=O)(=O)c4cccc(Cl)c4)c(Oc4ccc5[nH]ccc5c4)c3)CC2)=C(c2ccc(Cl)cc2)C1 [Example 34, 4-(4-{[2-(4-chlorophenyl)-4,4-dimethylcyclohex-1-en-1-yl]methyl}piperazin-1-yl)-N-[(3-chlorophenyl)sulfonyl]-2-(1H-indol-5-yloxy)benzamide]	5.14
O=C(NS(=O)(=O)c1cccc([N+](=O)[O-])c1)c1ccc(N2CCN(Cc3ccccc3-c3ccc(Cl)cc3)CC2)cc1S(=O)(=O)c1ccccc1 [Example 26, 4-{4-[(4′-chloro-1,1′-biphenyl-2-yl)methyl]piperazin-1-yl}-N-[(3-nitrophenyl)sulfonyl]-2-(phenylsulfonyl)benzamide]	627
CN(C)CCOc1cccc(-c2ccc(Cl)cc2)c1CN1CCN(c2ccc(C(=O)NS(=O)(=O)c3ccccc3)c(Oc3cccc4[nH]ccc34)c2)CC1 [Example 29, 4-[4-({4′-chloro-3-[2-(dimethylamino)ethoxy]-1,1′-biphenyl-2-yl}methyl)piperazin-1-yl]-2-(1H-indol-4-yloxy)-N-(phenylsulfonyl)benzamide]	2.27
CC1(C)CCC(CN2CCN(c3ccc(C(=O)NS(=O)(=O)c4ccccc4)c(Oc4ccc5[nH]ccc5c4)c3)CC2)=C(c2ccc(Cl)cc2)C1 [Example 31, 4-(4-{[2-(4-chlorophenyl)-4,4-dimethylcyclohex-1-en-1-yl]methyl}piperazin-1-yl)-2-(1H-indol-5-yloxy)-N-(phenylsulfonyl)benzamide]	21.6
CC1(C)CCC(CN2CCN(c3ccc(C(=O)NS(=O)(=O)c4cccc(C(F)(F)F)c4)c(Oc4ccc5[nH]ccc5c4)c3)CC2)=C(c2ccc(Cl)cc2)C1 [Example 33, 4-(4-{[2-(4-chlorophenyl)-4,4-dimethylcyclohex-1-en-1-yl]methyl}piperazin-1-yl)-2-(1H-indol-5-yloxy)-N-{[3-(trifluoromethyl)phenyl]sulfonyl}benzamide]	4.09
CC1(C)CCC(CN2CCN(c3ccc(C(=O)NS(=O)(=O)c4cccc(F)c4)c(Oc4ccc5[nH]ccc5c4)c3)CC2)=C(c2ccc(Cl)cc2)C1 [Example 35, 4-(4-{[2-(4-chlorophenyl)-4,4-dimethylcyclohex-1-en-1-yl]methyl}piperazin-1-yl)-N-[(3-fluorophenyl)sulfonyl]-2-(1H-indol-5-yloxy)benzamide]	8.84
CC1(C)CCC(CN2CCN(c3ccc(C(=O)NS(=O)(=O)c4ccc5ccccc5c4)c(Oc4ccc5[nH]ccc5c4)c3)CC2)=C(c2ccc(Cl)cc2)C1 [Example 36, 4-(4-{[2-(4-chlorophenyl)-4,4-dimethylcyclohex-1-en-1-yl]methyl}piperazin-1-yl)-2-(1H-indol-5-yloxy)-N-(2-naphthylsulfonyl)benzamide]	31.7
O=C(NS(=O)(=O)c1cccc([N+](=O)[O-])c1)c1ccc(N2CCN(Cc3ccccc3-c3ccc(Cl)cc3)CC2)cc1Cc1ccccc1 [Example 15, 2-benzyl-4-{4-[(4′-chloro-1,1′-biphenyl-2-yl)methyl]piperazin-1-yl}-N-[(3-nitrophenyl)sulfonyl]benzamide]	48
O=C(NS(=O)(=O)c1ccc(F)cc1)c1ccc(N2CCN(Cc3ccccc3-c3ccc(Cl)cc3)CC2)cc1Oc1ccccc1 [Example 24, 4-{4-[(4′-chloro-1,1′-biphenyl-2-yl)methyl]piperazin-1-yl}-N-[(4-fluorophenyl)sulfonyl]-2-phenoxybenzamide]	10.3
O=C(NS(=O)(=O)c1cccc([N+](=O)[O-])c1)c1ccc(N2CCN(Cc3ccccc3-c3ccc(Cl)cc3)CC2)cc1NCc1ccccc1 [Example 14, 2-(benzylamino)-4-{4-[(4′-chloro-1,1′-biphenyl-2-yl)methyl]piperazin-1-yl}-N-[(3-nitrophenyl)sulfonyl]benzamide]	749
O=C(NS(=O)(=O)c1cccc([N+](=O)[O-])c1)c1ccc(N2CCN(Cc3ccccc3-c3ccc(Cl)cc3)CC2)cc1CCc1ccccc1 [Example 18, 4-{4-[(4′-chloro-1,1′-biphenyl-2-yl)methyl]piperazin-1-yl}-N-[(3-nitrophenyl)sulfonyl]-2-(2-phenylethyl)benzamide]	746
CC1(C)CCC(CN2CCN(c3ccc(C(=O)NS(=O)(=O)c4cccc(C#N)c4)c(Oc4ccc5[nH]ccc5c4)c3)CC2)=C(c2ccc(Cl)cc2)C1 [Example 32, 4-(4-{[2-(4-chlorophenyl)-4,4-dimethylcyclohex-1-en-1-yl]methyl}piperazin-1-yl)-N-[(3-cyanophenyl)sulfonyl]-2-(1H-indol-5-yloxy)benzamide]	5.94
O=C(NS(=O)(=O)c1cccc([N+](=O)[O-])c1)c1ccc(N2CCN(Cc3ccccc3-c3ccc(Cl)cc3)CC2)cc1OCCc1ccccc1 [Example 8, 4-{4-[(4′-chloro-1,1′-biphenyl-2-yl)methyl]piperazin-1-yl}-N-[(3-nitrophenyl)sulfonyl]-2-(2-phenylethoxy)benzamide]	975
O=C(NS(=O)(=O)c1cccc(F)c1)c1ccc(N2CCN(Cc3ccccc3-c3ccc(Cl)cc3)CC2)cc1 [Example 20, 4-{4-[(4′-chloro-1,1′-biphenyl-2-yl)methyl]piperazin-1-yl}-N-[(3-fluorophenyl)sulfonyl]benzamide]	280
O=C(NS(=O)(=O)c1ccc(Cl)c([N+](=O)[O-])c1)c1ccc(N2CCN(Cc3ccccc3-c3ccc(Cl)cc3)CC2)cc1Oc1ccccc1 [Example 27, 4-{4-[(4′-chloro-1,1′-biphenyl-2-yl)methyl]piperazin-1-yl}-N-[(4-chloro-3-nitrophenyl)sulfonyl]-2-phenoxybenzamide]	4.16
CN(C)CCOc1cccc(-c2ccc(Cl)cc2)c1CN1CCN(c2ccc(C(=O)NS(=O)(=O)c3cccc([N+](=O)[O-])c3)c(Oc3cccc4[nH]ccc34)c2)CC1 [Example 28, 4-[4-({4′-chloro-3-[2-(dimethylamino)ethoxy]-1,1′-biphenyl-2-yl}methyl)piperazin-1-yl]-2-(1H-indol-4-yloxy)-N-[(3-nitrophenyl)sulfonyl]benzamide]	0.125
O=C(NS(=O)(=O)c1ccc(F)cc1)c1ccc(N2CCN(Cc3ccccc3-c3ccc(Cl)cc3)CC2)cc1 [Example 19, 4-{4-[(4′-chloro-1,1′-biphenyl-2-yl)methyl]piperazin-1-yl}-N-[(4-fluorophenyl)sulfonyl]benzamide]	403

Reference: patent publication US8426422B2, “Apoptosis-inducing agents for the treatment of cancer and immune and autoimmune diseases” (Abbvie Inc., priority 2009, dated 2013)
